Legend:
Assay in all cases: relative viability (nuclei count vs DMSO), 5 days (fraction); higher = more cells survive
Sulindac + Alpelisib = compound: CC1=C(CC(=O)O)c2cc(F)ccc2/C1=C\c1ccc([S+](C)[O-])cc1 [Sulindac] + Cc1nc(NC(=O)N2CCC[C@H]2C(N)=O)sc1-c1ccnc(C(C)(C)C(F)(F)F)c1 [Alpelisib] (partner 2 µM)
In short: (§1)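 Relative viability divides the nuclei count in treated wells by that in vehicle wells. Lung cancer cell lines were seeded in 1536-well plates, dosed by pin tool the next day, and fixed and stained after 5 days in one step with final 0.05% Triton X-100, 1% formaldehyde and 1 ug/ml Hoechst. Dosing was a single drug or a fixed anchor-drug dose plus five library-drug doses (not always all listed) in √10 steps, and values are medians of duplicate plates imaged at 4×.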

5-Fluorouracil + AZD7762 = compound: O=c1[nH]cc(F)c(=O)[nH]1 [5-Fluorouracil] + NC(=O)Nc1cc(-c2cccc(F)c2)sc1C(=O)N[C@H]1CCCNC1 [AZD7762] (partner 0.2 µM)
In short: as §1

[1] = compound: CN[C@@H]1C[C@H]2O[C@@](C)([C@@H]1OC)n1c3ccccc3c3c4c(c5c6ccccc6n2c5c31)C(=O)NC4 [Staurosporine] + Cc1cc(Nc2cc(N3CCN(C)CC3)nc(Sc3ccc(NC(=O)C4CC4)cc3)n2)n[nH]1 [Tozasertib] (partner 0.1 µM)
In short: as §1

[2] = compound: O=c1[nH]cc(F)c(=O)[nH]1 [5-Fluorouracil] + CC1(C)CCC(c2ccc(Cl)cc2)=C(CN2CCN(c3ccc(C(=O)NS(=O)(=O)c4ccc(N[C@H](CCN5CCOCC5)CSc5ccccc5)c(S(=O)(=O)C(F)(F)F)c4)cc3)CC2)C1 [Navitoclax] (partner 0.5 µM)
In short: as §1

Row | Cell Line | relative viability (Sulindac + Alpelisib; first compound 0.08 µM) | relative viability (Sulindac + Alpelisib; first compound 0.253 µM) | relative viability (Sulindac + Alpelisib; first compound 0.8 µM) | relative viability (Sulindac + Alpelisib; first compound 2.53 µM) | relative viability (Sulindac + Alpelisib; first compound 8 µM) | relative viability (5-Fluorouracil + AZD7762; first compound 0.02 µM) | relative viability (5-Fluorouracil + AZD7762; first compound 0.6325 µM) | relative viability (5-Fluorouracil + AZD7762; first compound 2 µM) | relative viability ([1]; first compound 0.005 µM) | relative viability ([1]; first compound 0.01581 µM) | relative viability ([1]; first compound 0.05 µM) | relative viability ([1]; first compound 0.1581 µM) | relative viability ([1]; first compound 0.5 µM) | relative viability ([2]; first compound 0.02 µM) | relative viability ([2]; first compound 0.2 µM) | relative viability ([2]; first compound 0.6325 µM) | relative viability ([2]; first compound 2 µM) | relative viability (5-Fluorouracil + AZD7762; first compound 0.2 µM)
1 | RERF-LC-KJ | 0.837 | 0.889 | 0.65 | 0.877 | 0.746 | 0.973 | 0.948 | 0.893 | 0.414 | 0.433 | 0.219 | 0.178 | 0.176 | 0.834 | 0.971 | 1.01 | 0.554 | 
2 | NCI-H2087 | 1.16 | 1 | 1.23 | 1.17 | 1.04 | 1.42 | 0.606 | 0.408 | 0.189 | 0.206 | 0.102 | 0.0977 | 0.0926 | 0.928 | 0.917 | 0.573 | 0.557 | 1.01
3 | NCI-H2170 | 1.03 | 0.904 | 0.613 | 0.835 | 0.912 | 0.793 | 0.317 | 0.236 | 0.756 |  | 0.429 | 0.181 | 0.181 | 0.573 | 0.557 | 0.351 | 0.31 | 0.718
4 | HCC-78 | 0.353 | 0.387 | 0.352 | 0.27 | 0.374 | 0.562 | 0.239 | 0.306 | 0.545 | 0.287 | 0.424 | 0.429 | 0.258 | 0.55 | 0.805 | 0.285 |  | 0.503
5 | NCI-H1395 | 0.948 | 1.05 | 0.975 | 0.973 | 1.08 | 0.395 | 0.459 | 0.385 | 0.705 | 0.614 | 0.37 | 0.331 | 0.265 | 0.997 | 1.21 | 1.07 | 1.12 | 0.405
6 | H3255 | 0.805 | 0.768 | 0.537 | 0.747 | 0.898 | 0.98 | 0.696 | 0.567 | 0.504 | 0.337 | 0.203 | 0.239 | 0.145 | 0.566 | 0.795 | 0.454 | 0.419 | 0.949
7 | HCC-15 | 0.989 | 0.957 | 0.813 | 0.828 | 0.968 | 1.28 | 0.448 | 0.39 | 0.379 |  | 0.166 | 0.0982 | 0.0697 | 0.761 | 0.77 | 0.469 | 0.298 | 1.2
8 | NCI-H838 | 1.22 | 0.983 | 0.769 | 0.975 | 1.08 | 0.915 | 0.654 | 0.642 | 0.218 | 0.156 | 0.179 | 0.164 | 0.143 | 1.14 | 1.06 | 0.572 | 0.28 | 0.684
9 | HCC-44 | 0.928 | 0.987 | 0.761 | 0.891 | 0.821 | 1.01 | 0.733 | 0.466 | 0.426 | 0.136 | 0.168 | 0.135 | 0.112 | 0.916 | 0.984 | 0.744 | 0.341 | 0.925
10 | EMC-BAC-2 | 0.854 | 0.791 | 0.637 | 0.767 | 0.87 | 1.14 | 1.11 | 1.01 | 0.181 | 0.138 | 0.19 | 0.192 | 0.181 | 1.19 | 1.2 | 1.25 | 1.19 | 1.22
11 | LK-2 | 1.42 | 1.14 |  |  | 1.38 | 0.482 | 0.153 | 0.188 | 0.164 |  | 0.156 | 0.149 | 0.151 | 1.06 | 0.939 | 0.652 | 0.603 | 0.486
12 | NCI-H460 | 0.82 | 0.492 |  | 0.477 | 0.709 | 0.678 | 0.0757 | 0.0672 | 0.698 | 0.113 | 0.304 | 0.0517 | 0.0214 | 1.5 | 0.461 | 0.165 | 0.0655 | 0.332
13 | NCI-H3122 | 0.639 | 0.722 | 0.699 | 0.756 | 0.941 | 0.959 | 0.197 | 0.143 | 0.441 |  | 0.246 | 0.134 | 0.0837 | 1.04 | 0.743 | 0.443 | 0.259 | 0.856
14 | NCI-H2126 | 0.723 | 0.737 | 0.669 | 0.721 | 0.807 | 0.995 | 0.209 | 0.256 | 0.658 | 0.494 | 0.348 | 0.247 | 0.226 | 0.827 | 0.367 | 0.303 | 0.298 | 0.249
15 | NCI-H596 | 0.554 | 0.532 | 0.551 | 0.478 | 0.485 | 1.23 | 0.371 | 0.356 | 1.02 | 0.735 | 0.572 | 0.36 | 0.288 | 0.804 | 0.753 | 0.566 | 0.347 | 0.981
16 | LOU-NH91 | 0.711 | 0.7 | 0.636 | 0.745 | 0.808 | 0.754 | 0.44 | 0.313 | 0.727 | 0.483 | 0.375 | 0.302 | 0.191 | 0.732 | 0.637 | 0.455 | 0.283 | 0.725
17 | NCI-H1651 | 1.2 | 1.1 | 0.874 | 0.911 | 1.3 | 0.458 | 0.186 |  | 0.66 | 0.675 | 0.371 | 0.237 | 0.185 | 1.09 | 0.9 | 0.574 | 0.42 | 0.234
